Measured values published in ChEMBL document CHEMBL1201862, “PubChem BioAssay data set” (2004).
Active and inactive are the calls of the source.

What was measured:
[1] = Luminescence Cell-Based Dose Response HTS to Identify Activators of Luciferase Translation or Activity in H4 […] Cells. [Related pubchem assays: 1829 (Project Summary), 1814 (Primary HTS)]; type: functional
[2] = Luminescence Cell-Based Dose Confirmation HTS to Identify Activators of 5'UTR Stem-Loop Driven Alpha-Synuclein mRNA Translation in H4 Neuroglioblastoma Cells. [Related pubchem assays: 1829 (Project Summary), 1814 (Primary HTS)]; type: functional
H4 = experiment: Luminescence Cell-Based Dose Response HTS to Identify Activators of 5'UTR Stem-Loop Driven Prion Protein mRNA Translation in H4 Neuroglioblastoma Cells. [Related pubchem assays: 1829 (Project Summary), 1814 (Primary HTS)]; type: functional; conditions: Homo sapiens
[3] = target: 26S proteasome non-ATPase regulatory subunit 14 (Homo sapiens, UniProt O00487); experiment: inhibition of proteasome subunit RPN11 – biochemical, fluorescence polarization, uHTS hits, confirmation (AID 602368); type: functional
Sequence of 26S proteasome non-ATPase regulatory subunit 14 (O00487 whole entry): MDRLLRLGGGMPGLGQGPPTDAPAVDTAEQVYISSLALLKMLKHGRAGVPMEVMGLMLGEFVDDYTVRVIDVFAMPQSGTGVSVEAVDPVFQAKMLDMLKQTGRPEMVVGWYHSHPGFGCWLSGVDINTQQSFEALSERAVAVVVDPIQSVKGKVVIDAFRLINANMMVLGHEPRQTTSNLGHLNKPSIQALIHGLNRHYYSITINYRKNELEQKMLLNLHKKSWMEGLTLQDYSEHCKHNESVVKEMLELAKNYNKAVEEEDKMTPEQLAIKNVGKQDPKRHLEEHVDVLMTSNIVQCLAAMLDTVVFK

Prothrombin = Prothrombin (Bos taurus, UniProt P00735); experiment: thrombin inhibition, dose response, biochemical, fluorescence polarization, uHTS hits (AID 602369); type: functional
[4] = target: 72 kDa type IV collagenase (Homo sapiens, UniProt P08253); experiment: Dose Response validation of uHTS RPN11 inhibitor hits using a MMP-2 Fluorescence assay.; type: functional
Sequence of 72 kDa type IV collagenase (P08253 whole entry): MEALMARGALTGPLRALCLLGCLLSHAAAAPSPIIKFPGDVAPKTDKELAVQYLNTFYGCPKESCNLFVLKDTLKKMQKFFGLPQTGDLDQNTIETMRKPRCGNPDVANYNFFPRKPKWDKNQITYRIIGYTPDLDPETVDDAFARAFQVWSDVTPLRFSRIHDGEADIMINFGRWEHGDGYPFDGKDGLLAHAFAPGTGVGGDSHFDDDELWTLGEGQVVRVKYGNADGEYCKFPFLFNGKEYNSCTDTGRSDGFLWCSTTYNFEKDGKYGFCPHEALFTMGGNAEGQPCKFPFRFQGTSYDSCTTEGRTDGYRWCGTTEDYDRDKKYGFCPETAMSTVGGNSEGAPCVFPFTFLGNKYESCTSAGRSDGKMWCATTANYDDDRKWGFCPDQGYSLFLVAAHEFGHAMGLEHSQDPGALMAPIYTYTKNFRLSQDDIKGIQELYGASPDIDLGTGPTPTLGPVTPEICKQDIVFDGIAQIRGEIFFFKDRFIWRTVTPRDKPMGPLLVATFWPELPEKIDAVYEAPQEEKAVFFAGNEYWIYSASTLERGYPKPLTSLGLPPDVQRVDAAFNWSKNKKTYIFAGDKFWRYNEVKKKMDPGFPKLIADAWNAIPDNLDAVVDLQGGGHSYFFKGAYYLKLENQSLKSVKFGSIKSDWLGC

[5] = target: T1, Endoribonuclease toxin MazF (Escherichia coli K-12, UniProt P0AE70); experiment: fluorescent RNA oligo signal without MazF, dose response, counter-screen for MazEF activator project, biochemical, fluorescence, single-stranded RNase substrate (AID 588502); type: functional
T1 sequence (P0AE70 whole entry): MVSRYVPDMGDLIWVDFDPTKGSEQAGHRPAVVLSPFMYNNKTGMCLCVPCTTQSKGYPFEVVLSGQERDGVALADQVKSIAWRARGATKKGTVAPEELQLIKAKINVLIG

[6] = target: T1, Endoribonuclease toxin MazF; experiment: MazF toxin RNase activators, dose response, biochemical, fluorescence, single-stranded RNA substrate, uHTS hits (AID 588481); type: functional
[7] = Vero E6 cell cytotoxicity, dose response, cytotoxicity control for non-replicating M. tuberculosis project, secondary assay (AID 492998); type: functional, VeroE6; conditions: Vero C1008
[8] = THP-1 cell cytotoxicity, dose response, cytotoxicity control for non-replicating M. tuberculosis project (AID 489025); type: functional
[9] = NIH-3T3 fibroblast cytotoxicity, dose response, cytotoxicity control, cell-based, fluorescence, Alamar Blue, secondary assay (AID 2327); type: functional;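 note: NIH-3T3 mouse fibroblasts cultured with fluconazole at 8 µg/mL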
[10] = C. albicans growth with fluconazole, confirmation, fluorescence, retest (AID 2467); type: functional, cell-based
Aminopeptidase N = target: T2, Aminopeptidase N (Plasmodium falciparum FcB1/Columbia, UniProt O96935); experiment: P. falciparum M1AAP inhibitors, biochemical, fluorogenic H-Leu-NHMec substrate, 1536-well (AID 1445); parameters: species or system Plasmodium falciparum 3D7, 3D7
T2 sequence (O96935 whole entry): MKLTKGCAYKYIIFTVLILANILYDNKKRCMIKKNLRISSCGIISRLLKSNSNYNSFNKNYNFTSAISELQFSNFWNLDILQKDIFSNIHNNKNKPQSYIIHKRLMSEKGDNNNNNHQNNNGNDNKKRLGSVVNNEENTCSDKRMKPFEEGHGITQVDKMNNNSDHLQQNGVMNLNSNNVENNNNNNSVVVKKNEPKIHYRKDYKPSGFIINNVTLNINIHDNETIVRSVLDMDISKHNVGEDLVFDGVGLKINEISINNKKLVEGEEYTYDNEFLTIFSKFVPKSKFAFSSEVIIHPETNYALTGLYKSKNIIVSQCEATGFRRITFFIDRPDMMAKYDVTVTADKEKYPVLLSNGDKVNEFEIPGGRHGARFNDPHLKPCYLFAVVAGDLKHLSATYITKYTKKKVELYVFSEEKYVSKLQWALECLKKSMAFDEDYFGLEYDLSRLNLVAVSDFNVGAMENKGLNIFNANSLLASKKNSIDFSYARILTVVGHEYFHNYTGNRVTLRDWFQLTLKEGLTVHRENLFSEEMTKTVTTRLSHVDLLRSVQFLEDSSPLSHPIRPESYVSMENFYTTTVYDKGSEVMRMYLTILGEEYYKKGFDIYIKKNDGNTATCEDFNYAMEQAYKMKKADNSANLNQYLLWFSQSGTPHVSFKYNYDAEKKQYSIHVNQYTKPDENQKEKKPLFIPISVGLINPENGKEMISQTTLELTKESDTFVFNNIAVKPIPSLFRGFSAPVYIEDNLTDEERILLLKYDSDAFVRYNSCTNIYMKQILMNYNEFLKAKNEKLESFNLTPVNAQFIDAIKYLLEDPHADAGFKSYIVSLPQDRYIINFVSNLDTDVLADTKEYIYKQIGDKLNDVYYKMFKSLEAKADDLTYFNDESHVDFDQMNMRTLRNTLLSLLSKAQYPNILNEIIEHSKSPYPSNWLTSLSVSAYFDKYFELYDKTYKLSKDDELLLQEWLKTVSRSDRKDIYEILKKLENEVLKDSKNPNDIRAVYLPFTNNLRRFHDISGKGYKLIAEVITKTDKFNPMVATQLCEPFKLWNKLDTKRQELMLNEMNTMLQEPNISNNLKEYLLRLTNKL

[11] = inhibitors of intracellular T. cruzi replication, confirmation, NIH3T3 host cells, beta-gal luminescence (AID 2044); type: functional, cell-based;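 note: intracellular parasites grown in NIH/3T3 mouse fibroblasts as host cells; luminescent beta-galactosidase reporter signal from transgenic T. cruzi replicating inside host cells; inhibitors lower the luminescence signal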
[12] = cytotoxicity toward NIH3T3 fibroblasts, dose response, counter-screen, cell-based, ATP luminescence, mouse fibroblasts (AID 2010); type: functional;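 note: cells exposed to compound for about 90 hours before reading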
[13] = target: T3, Apoptotic protease-activating factor 1 (Homo sapiens, UniProt O14727); type: functional
T3 sequence (O14727 whole entry): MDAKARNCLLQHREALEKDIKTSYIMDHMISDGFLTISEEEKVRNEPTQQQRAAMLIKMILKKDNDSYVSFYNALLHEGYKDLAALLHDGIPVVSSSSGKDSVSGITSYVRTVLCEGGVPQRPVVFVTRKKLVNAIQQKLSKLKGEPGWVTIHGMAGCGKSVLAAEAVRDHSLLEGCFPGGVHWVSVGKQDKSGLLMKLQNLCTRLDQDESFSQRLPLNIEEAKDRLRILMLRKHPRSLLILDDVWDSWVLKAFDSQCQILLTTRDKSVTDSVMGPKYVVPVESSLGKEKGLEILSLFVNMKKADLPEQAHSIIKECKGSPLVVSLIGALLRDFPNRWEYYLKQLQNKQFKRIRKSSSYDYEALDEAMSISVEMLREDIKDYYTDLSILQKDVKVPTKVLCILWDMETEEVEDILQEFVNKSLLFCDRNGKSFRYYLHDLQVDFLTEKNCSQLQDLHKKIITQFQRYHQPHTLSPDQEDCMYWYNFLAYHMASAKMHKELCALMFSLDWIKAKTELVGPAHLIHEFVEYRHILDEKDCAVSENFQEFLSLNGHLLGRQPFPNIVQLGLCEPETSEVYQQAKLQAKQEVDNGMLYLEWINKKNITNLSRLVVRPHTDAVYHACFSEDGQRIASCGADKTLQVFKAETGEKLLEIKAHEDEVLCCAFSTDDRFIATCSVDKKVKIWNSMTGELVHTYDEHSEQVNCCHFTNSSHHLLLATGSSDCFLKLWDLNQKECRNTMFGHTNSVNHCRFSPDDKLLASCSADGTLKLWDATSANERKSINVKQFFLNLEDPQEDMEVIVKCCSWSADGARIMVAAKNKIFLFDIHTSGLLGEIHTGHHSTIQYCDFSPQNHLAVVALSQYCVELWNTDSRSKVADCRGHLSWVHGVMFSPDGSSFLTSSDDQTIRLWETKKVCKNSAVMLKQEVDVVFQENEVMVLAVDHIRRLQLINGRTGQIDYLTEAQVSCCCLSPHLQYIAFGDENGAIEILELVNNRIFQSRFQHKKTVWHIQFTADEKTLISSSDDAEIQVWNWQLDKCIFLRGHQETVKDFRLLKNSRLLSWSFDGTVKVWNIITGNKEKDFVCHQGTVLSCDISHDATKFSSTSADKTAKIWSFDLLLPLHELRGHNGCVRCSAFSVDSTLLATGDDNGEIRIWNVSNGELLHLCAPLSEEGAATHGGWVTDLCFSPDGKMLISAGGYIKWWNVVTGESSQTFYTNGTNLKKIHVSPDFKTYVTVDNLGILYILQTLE

[14] = target: Dual specificity tyrosine-phosphorylation-regulated kinase 1A (Rattus norvegicus, UniProt Q63470); type: biochemical, Homo sapiens
cells = type: functional
Vero = Vero cell cytotoxicity, cytotoxicity control for flavivirus capping enzyme inhibitors (AID 588742); type: functional; conditions: Chlorocebus sabaeus
[15] = target: Heat shock protein HSP 90-alpha (Homo sapiens, UniProt P07900); type: functional, organism-based
Genome polyprotein = Genome polyprotein (dengue virus type 2, UniProt P29990); experiment: Dengue-2 NS5 methyltransferase inhibitors, primary screen, biochemical, confirmation dose response (AID 588689); type: functional
Sequence of Genome polyprotein (P29990 2492-3391 limits assumed): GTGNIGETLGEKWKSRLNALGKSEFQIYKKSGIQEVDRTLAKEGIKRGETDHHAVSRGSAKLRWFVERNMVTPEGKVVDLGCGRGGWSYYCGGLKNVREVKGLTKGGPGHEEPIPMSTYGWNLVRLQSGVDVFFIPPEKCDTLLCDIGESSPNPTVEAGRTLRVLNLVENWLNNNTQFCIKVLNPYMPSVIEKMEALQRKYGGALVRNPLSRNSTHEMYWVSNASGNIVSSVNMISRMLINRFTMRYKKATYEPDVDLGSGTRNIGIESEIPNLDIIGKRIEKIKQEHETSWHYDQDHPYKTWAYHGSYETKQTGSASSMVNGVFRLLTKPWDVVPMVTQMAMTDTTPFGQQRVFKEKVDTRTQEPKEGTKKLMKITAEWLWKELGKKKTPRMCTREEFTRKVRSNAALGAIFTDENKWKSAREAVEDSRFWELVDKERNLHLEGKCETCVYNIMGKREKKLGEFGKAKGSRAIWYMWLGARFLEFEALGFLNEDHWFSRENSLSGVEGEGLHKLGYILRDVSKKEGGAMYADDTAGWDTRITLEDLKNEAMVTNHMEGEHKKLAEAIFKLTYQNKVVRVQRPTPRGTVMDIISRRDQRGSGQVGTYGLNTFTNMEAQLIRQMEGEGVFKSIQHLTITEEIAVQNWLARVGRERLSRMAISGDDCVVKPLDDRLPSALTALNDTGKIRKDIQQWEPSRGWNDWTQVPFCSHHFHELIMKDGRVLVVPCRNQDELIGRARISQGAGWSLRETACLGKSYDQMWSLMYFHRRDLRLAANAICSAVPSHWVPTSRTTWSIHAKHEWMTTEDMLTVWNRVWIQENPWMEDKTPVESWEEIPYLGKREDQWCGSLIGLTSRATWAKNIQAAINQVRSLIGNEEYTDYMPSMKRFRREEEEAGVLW

[16] = target: T4, Corticotropin-releasing factor receptor 2/Corticotropin-releasing factor-binding protein (Homo sapiens, UniProt P24387+Q13324); experiment: activators of CRF receptor 2 with binding protein – uHTS hits, confirmation (AID 602473); type: functional; conditions: read-out: EC50_Mean
T4 sequence (Q13324 whole entry): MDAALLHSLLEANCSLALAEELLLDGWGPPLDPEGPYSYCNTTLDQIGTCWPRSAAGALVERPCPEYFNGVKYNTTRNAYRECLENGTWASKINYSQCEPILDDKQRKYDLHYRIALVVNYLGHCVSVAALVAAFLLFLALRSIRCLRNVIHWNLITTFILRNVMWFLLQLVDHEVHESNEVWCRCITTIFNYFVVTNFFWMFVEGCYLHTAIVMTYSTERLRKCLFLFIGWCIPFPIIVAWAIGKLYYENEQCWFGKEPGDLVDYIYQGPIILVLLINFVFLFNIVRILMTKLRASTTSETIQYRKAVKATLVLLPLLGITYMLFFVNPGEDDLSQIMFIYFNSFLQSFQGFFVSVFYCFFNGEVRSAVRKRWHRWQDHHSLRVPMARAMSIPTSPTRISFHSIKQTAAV
T4 sequence (P24387 whole entry): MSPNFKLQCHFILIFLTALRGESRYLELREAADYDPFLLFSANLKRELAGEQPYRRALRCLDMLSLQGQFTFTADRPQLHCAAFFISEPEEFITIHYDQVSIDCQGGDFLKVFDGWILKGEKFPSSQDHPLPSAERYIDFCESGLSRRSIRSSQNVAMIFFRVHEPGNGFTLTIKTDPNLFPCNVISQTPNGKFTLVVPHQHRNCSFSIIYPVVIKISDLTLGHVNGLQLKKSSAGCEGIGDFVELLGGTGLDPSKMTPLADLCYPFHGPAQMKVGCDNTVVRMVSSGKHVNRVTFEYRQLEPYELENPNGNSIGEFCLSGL

## CCOc1ccc2nc(NC(=O)Cn3[nH]c(=O)c4ccccc4c3=O)sc2c1
[1]
  EC50: 5.14 µM (active)
[2]
  EC50: > 120 µM (not active)
H4
  EC50: 54.3 µM (active)
[3]
  IC50: 39.7 µM (active)
Prothrombin
  IC50: 90.4 µM (active)
[4]
  IC50: > 100 µM (inactive)

## COc1ccc2c(C)cc(SCC(=O)Nc3cc(C(N)=O)cc(C(N)=O)c3)nc2c1
[5]
  EC50: > 99 µM (inactive)
[6]
  EC50: > 99 µM (inactive)

## O=C(Nc1ncc([N+](=O)[O-])s1)c1cccs1
[7]
  CC50: > 20 µM (active)
[8]
  CC50: 34.3 µM (active)
[9]
  EC50: > 150 µM (inactive)
[10]
  EC50: 0.069 µM (active)

## CN(C)c1oc(/C=C/c2ccccc2)nc1C#N
Aminopeptidase N
  IC50: 23.9 µM (active)

## Cc1cc(C(=O)NN=C(S)NCc2ccco2)nn1C
Aminopeptidase N
  IC50: 57.7 µM (active)

## O=C(Nc1cccc([N+](=O)[O-])c1)Nc1ccc2c(c1)CCC2
[5]
  EC50: > 99 µM (inactive)
[6]
  EC50: > 99 µM (inactive)
[11]
  EC50: 3.27 µM (active)
[12]
  EC50: > 60 µM (not active)

## COc1ccc(-c2nc3nc(C)c(Cc4ccccc4)c(O)n3n2)cc1
[13]
  IC50: 30.6 µM (active)

## O=C(NCCN1CCOCC1)c1cc2c(=O)n3ccccc3nc2n1Cc1ccccc1
Aminopeptidase N
  IC50: 102 µM (active)

## Cc1ccccc1NC(=O)C1c2cccc[n+]2CC(=O)N1c1c(C)cccc1C (stereo unspecified)
[5]
  EC50: > 99 µM (inactive)
[6]
  EC50: > 99 µM (inactive)

## COc1ccc(/C=C2\SC(N3CCCCC3)=NC2=O)cc1
[14]
  AC50: 0.308 µM (active)

## COc1ccc(OC)c(NC(=O)C(=O)NNC(=O)C23CC4CC(CC(C4)C2)C3)c1
[7]
  CC50: > 20 µM (active)
cells
  IC50: 8.62 µM (active)
[8]
  CC50: > 40 µM (active)

## CCc1nc2oc3ccccc3c(=O)c2c(=O)n1-c1ccc(C)cc1
[3]
  IC50: 24.5 µM (active)
Prothrombin
  IC50: 87.5 µM (active)
[4]
  IC50: > 100 µM (inactive)

## Cc1cc(Br)c(Cl)cc1NC(=O)CN1C(=O)C2C3CC(c4ccccc4)C(C3)C2C1=O (stereo unspecified)
[11]
  EC50: 2.59 µM (active)
[12]
  EC50: 7.41 µM (active)
Vero
  CC50: > 40 µM (active)

## Cc1cc(N=Nc2ccccc2C(=O)O)c(C)c(C)c1O
[15]
  AC50: 4.36 µM (active)
[3]
  IC50: 25.4 µM (active)
Prothrombin
  IC50: 34.2 µM (active)
[4]
  IC50: 43.4 µM (active)

## Cc1ccc(S(=O)(=O)N2[C@@H](c3ccc(Br)cc3)C(C(=O)O)=CC[C@H]2c2ccc(C(C)C)cc2)cc1
Genome polyprotein
  IC50: 32.9 µM (active)
Vero
  CC50: > 40 µM (active)

## COc1ccc(/C=N/Nc2ccc([N+](=O)[O-])cc2S(=O)(=O)N2CCN(C)CC2)cc1
[5]
  EC50: 8.43 µM (active)
[6]
  EC50: > 99 µM (inactive)
[16]
  EC50: 6.27 µM (active)
